Measurements published in publication PMC5442318, “Hundreds of dual-stage antimalarial molecules discovered by a functional gametocyte screen” (Nature Communications, 2017).

What was measured:
[1] = test system: P. falciparum stage V female gametocytes; assay: P. falciparum female gametocyte activation assay (Pf FGAA), 24 h or 48 h preincubation, Pfs25 expression readout; format: cell-based, Plasmodium falciparum NF54; conditions: mean; read-out: Gametocytes mean Pf FGAA IC50
Outline: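 Female activation, triggered by xanthurenic acid and cooling, was scored by imaging Cy3-labelled anti-Pfs25 female gametes after 24 h at 26 °C. Beforehand, purified NF54 stage V gametocytes had been incubated with compound for either 24 h or 48 h (37 °C, 3% O2). Values are pIC50 from full-curve regression.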

[2] = test system: P. falciparum stages IV–V gametocytes; assay: Gametocytocidal ATP-depletion assay (gametocyte ATP bioluminescence); format: cell-based, Plasmodium falciparum
Outline: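 Read-out is luciferase luminescence of parasite ATP (BacTiter-Glo), standing in for viability. Double-purified mature stage IV–V gametocytes, 12,500 per well, were exposed 48 h at 37 °C in low-O2 gas; screening concentration 2 μM.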

HepG2 cells = assay: HepG2 cytotoxicity assay; format: cell-based; conditions: mean
Outline: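 Once incubation ended, the HepG2 plates were warmed to room temperature for 30 min alongside the CellTiter-Glo reagent. Luminescent signal was developed by reagent addition and stabilized for 10 min before plate reading.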

[3] = test system: P. falciparum asexual blood stages; conditions: TCAMS data; ref 1 (Gamo et al., 2010); read-out: Pf Asexual blood stages XC50; cited from earlier work

Row | Compound | IC50 [1] | Gametocytes mean ATP inhibition at 2µM (%) [2] | HepG2 cells mean TOX50 (HepG2 cells) | IC50 [3]
1 | CCOc1cc2ccccc2cc1CNCCCCCCNCc1cc2ccccc2cc1OCC.CS(=O)(=O)O [TCMDC-137940] | 1.29 µM | 2.59% | 6.06 µM | 0.98 µM
2 | COc1cc2ccccc2cc1CCNCCCCNCCc1cc2ccccc2cc1OC.CS(=O)(=O)O [TCMDC-137944] | 0.62 µM | 84.04% | 1.66 µM | 0.4 µM
3 | COc1cc2c(OC)cccc2cc1CNCCCCCCNCc1cc2cccc(OC)c2cc1OC.CS(=O)(=O)O [TCMDC-137945] | 1.82 µM | -15.51% | 4.90 µM | 0.82 µM
4 | CCCOc1c(CCNCCCCNCCc2ccc3ccccc3c2OCCC)ccc2ccccc12.CS(=O)(=O)O [TCMDC-137950] | 0.64 µM | 95.44% | 1.72 µM | 0.48 µM
5 | CCCOc1ccc(CCNCCCCNCCc2ccc(OCCC)c3ccccc23)c2ccccc12.CS(=O)(=O)O [TCMDC-137952] | 0.61 µM | 94.33% | 2.16 µM | 0.92 µM
6 | COc1ccc2c(OC)c(CNCCCCCCNCc3ccc4cc(OC)ccc4c3OC)ccc2c1.CS(=O)(=O)O [TCMDC-137953] | 1 µM | 2.77% | 2.11 µM | 0.92 µM
7 | COc1c(CNCCCCCCNCc2cc(Cl)c3ccccc3c2OC)cc(Cl)c2ccccc12.CS(=O)(=O)O [TCMDC-137958] | 1.18 µM | -6.18% | 4.62 µM | 0.94 µM
8 | COc1ccc(CCNCCCCNCCc2ccc(OC)c3ccccc23)c2ccccc12.CS(=O)(=O)O [TCMDC-137961] | 0.48 µM | 90.63% | 2.14 µM | 0.45 µM
9 | CCCCCCOc1ccc2ccccc2c1CNCCCCCCNCc1c(OCCCCCC)ccc2ccccc12.CS(=O)(=O)O [TCMDC-137963] | 1.5 µM | 77.54% | 2.40 µM | 1.06 µM
10 | CC(C)Oc1ccc2ccccc2c1CNCCCCCCNCc1c(OC(C)C)ccc2ccccc12.CS(=O)(=O)O [TCMDC-137965] | 0.95 µM | 37.88% | 1.91 µM | 0.61 µM
11 | CCCOc1ccc2ccccc2c1CNCCCCCCNCc1c(OCCC)ccc2ccccc12.CS(=O)(=O)O [TCMDC-137966] | 1.03 µM | 42.35% | 2.00 µM | 0.79 µM
12 | CC(C)COc1ccc2ccccc2c1CNCCCCCCNCc1c(OCC(C)C)ccc2ccccc12.CS(=O)(=O)O [TCMDC-137972] | 0.81 µM | 92.13% | 2.19 µM | 0.69 µM
13 | CCCCOc1c(CNCCCCCCNCc2ccc3ccccc3c2OCCCC)ccc2ccccc12.CS(=O)(=O)O [TCMDC-137975] | 1.49 µM | 37.85% | 2.21 µM | 0.87 µM
14 | COc1ccccc1-c1nc2c(ccc3nc(N)nc(N)c32)[nH]1 [TCMDC-137976] | 1.13 µM | 85.21% | 2.87 µM | 0.18 µM
15 | CC(C)(C)c1ccc(-c2cc3c(ccc4nc(N)nc(N)c43)[nH]2)cc1 [TCMDC-137977] | 0.77 µM | 65.65% | 1.86 µM | 0.11 µM
16 | CC(C)(C)c1ccc(-c2nc3c(ccc4nc(N)nc(N)c43)[nH]2)cc1.Cl [TCMDC-137984] | 0.26 µM | 79.78% | 2.12 µM | 0.16 µM

Row | Compound | IC50 [1] | Gametocytes mean ATP inhibition at 2µM (%) [2] | HepG2 cells mean TOX50 (HepG2 cells) | IC50 [3]
17 | CCCN(CCC)CCCN(CCCN(CCC)CCC)c1cc(C)nc(Nc2ccc3cc(Br)ccc3c2)n1.Cl [TCMDC-138006] | 0.99 µM | -22.37% | 3.43 µM | 0.21 µM
18 | CCCCCCCCN1CCN(CCCCCCNc2c3ccccc3nc3ccccc23)CC1.Cl [TCMDC-138015] | 0.64 µM | 57.24% | 3.35 µM | 0.16 µM
19 | Cl.Clc1ccc(CNCCCCCCCNCc2ccc(Cl)c(Cl)c2)cc1Cl [TCMDC-138075] | 0.7 µM | -3.08% | 4.57 µM | 0.37 µM
20 | COc1cc2nc(N3CCC(CNC(=O)c4ccc(-c5ccc(-c6noc(C)n6)cc5C)cc4)CC3)nc(N)c2cc1OC [TCMDC-138155] | 1.68 µM | 5.13% | 7.62 µM | 0.22 µM
21 | CC(=O)c1ccc2nc[nH]c(=O)c2c1 [TCMDC-138172] | 0.98 µM | 67.05% | 6.24 µM | 0.72 µM
22 | COc1cc2nc(NCc3cccc(CNC(=O)c4ccc(-c5ccc(C(C)=O)cc5)cc4)c3)nc(N)c2cc1OC.O=C(O)C(F)(F)F [TCMDC-138177] | 4.73 µM | -19.05% | 6.82 µM | 0.12 µM
23 | COc1cc2nc(N3CCN(C(=O)c4c(Cl)nsc4-c4ccccc4Cl)CC3)nc(N)c2cc1OC.O=C(O)C(F)(F)F [TCMDC-138186] | 0.99 µM | 69.90% | 5.89 µM | 0.53 µM
24 | Cc1ccc(C(=O)Nc2ccc(Nc3ccnc4cc(-c5ccccn5)ccc34)cc2O)cc1.Cl [TCMDC-138205] | 0.54 µM | 46.13% | 1.27 µM | 0.11 µM
25 | COc1ccc(N2CCN(CCCCNCc3ccc(NC(=O)c4cc(Cl)cc(Cl)c4)cc3)CC2)c(OC)c1 [TCMDC-138226] | 3.11 µM | 17.06% | 4.42 µM | 0.25 µM
26 | CN(C)CCNCc1ccc(-c2ccc3c(Nc4ccc(Cl)cc4F)ccnc3c2)o1 [TCMDC-138391] | 1.71 µM | 2.24% | 0.89 µM | 0.21 µM
27 | Fc1cc(Cl)ccc1Nc1ccnc2cc(-c3ccc(CN4CCOCC4)o3)ccc12 [TCMDC-138393] | 0.64 µM | 87.52% | 5.62 µM | 0.64 µM
28 | CN(C)CCNCc1ccc(-c2ccc3c(Nc4ccc(Oc5ccccc5)cc4)ccnc3c2)o1 [TCMDC-138399] | 1.56 µM | 14.30% | 5.69 µM | 0.28 µM
29 | CN(C)CCN(C)Cc1cccc(-c2ccc3c(Nc4ccc(F)cc4Cl)ccnc3c2)c1 [TCMDC-138416] | 7.02 µM | 39.96% | 6.10 µM | 0.11 µM
30 | CN(C)CCN(C)Cc1ccc(-c2ccc3c(Nc4ccc(Oc5ccccn5)cc4)ccnc3c2)o1 [TCMDC-138426] | 2.05 µM | 16.13% | 5.37 µM | 0.42 µM
31 | COc1cc2nc(N3CCC(CCCC4CCNCC4)CC3)nc(NCc3ccccn3)c2cc1OC.O=C(O)C(F)(F)F [TCMDC-138494] | 6.86 µM | 35.38% | 18.51 µM | 0.76 µM
